Experimental data taken from patent US11718604B2, “4-amino-6-(1,3-benzodioxole)picolinates and their use as herbicides” (Dow AgroSciences LLC, priority 2018, dated 2023).

Key:
Format in all cases: in vivo
[1] = test system: ABUTH: velvetleaf (Abutilon theophrasti); test: Post-emergent herbicidal test, velvetleaf; details: post-emergence, 336 h, 14 days after application, read-out: Visual Growth Reduction (%) 14 Days After Application ABUTH
Protocol: (§1) Post-Emergent Test: Seeds or nutlets of the desired test plant species were planted in Sun Gro Metro-Mix® 360 planting mixture, which typically has a pH of 6.0 to 6.8 and an organic matter content of about 30 percent, in plastic pots with a surface area of 64 square centimeters (cm^2). When required to ensure good germination and healthy plants, a fungicide treatment and/or other chemical or physical treatment was applied. The plants were grown for 7-21 d in a greenhouse with an approximate 15 h photoperiod which was maintained at about 23-29° C. during the day and 22-28° C. during the night. Nutrients and water were added on a regular basis and supplemental lighting was provided with overhead metal halide 1000-Watt lamps as necessary. The plants were employed for testing when they reached the first or second true leaf stage.
(§2) A weighed amount, determined by the highest rate to be tested, of each test compound was placed in a 25 mL glass vial and was dissolved in 4 mL of a 97:3 v/v mixture of acetone and DMSO to obtain concentrated stock solutions. […] The concentrated stock solutions obtained were diluted with 20 mL of an aqueous mixture containing acetone, water, isopropyl alcohol, DMSO, Atplus 411F crop oil concentrate, and Triton® X-155 surfactant in a 48.5:39:10:1.5:1.0:0.02 v/v ratio to obtain spray solutions containing the highest application rates. Additional application rates were obtained by serial dilution of 12 mL of the high rate solution into a solution containing 2 mL of a 97:3 v/v mixture of acetone and DMSO and 10 mL of an aqueous mixture containing acetone, water, isopropyl alcohol, DMSO, Atplus 411F crop oil concentrate, and Triton X-155 surfactant in a 48.5:39:10:1.5:1.0:0.02 v/v ratio to obtain ½×, ¼×, ⅛× and 1/16× rates of the high rate. Compound requirements are based upon a 12 mL application volume at a rate of 187 liters per hectare (L/ha). Formulated compounds were applied to the plant material with an overhead Mandel track sprayer equipped with 8002E nozzles calibrated to deliver 187 L/ha over an application area of 0.503 square meters at a spray height of 18 inches (43 cm) above the average plant canopy height. Control plants were sprayed in the same manner with the solvent blank.
(§3) The treated plants and control plants were placed in a greenhouse as described above and watered by subirrigation to prevent wash-off of the test compounds. After 14 d, the condition of the test plants as compared with that of the untreated plants was determined visually and scored on a scale of 0 to 100 percent where 0 corresponds to no injury and 100 corresponds to complete kill.

[2] = test system: BRSNN: oilseed rape, canola (Brassica napus); test: Post-emergent herbicidal test, oilseed rape; details: post-emergence, 336 h, 14 days after application, read-out: Visual Growth Reduction (%) 14 Days After Application BRSNN
Protocol: as §1, §2, §3

[3] = test system: CIRAR: Canada thistle (Cirsium arvense); test: Post-emergent herbicidal test, Canada thistle; details: post-emergence, 336 h, 14 days after application, read-out: Visual Growth Reduction (%) 14 Days After Application CIRAR
Protocol: as §1, §2, §3

[4] = test system: EPHHL: wild poinsettia (Euphorbia heterophylla); test: Post-emergent herbicidal test, wild poinsettia; details: post-emergence, 336 h, 14 days after application, read-out: Visual Growth Reduction (%) 14 Days After Application EPHHL
Protocol: as §1, §2, §3

[5] = test system: IPOHE: ivyleaf morningglory (Ipomoea hederacea); test: Post-emergent herbicidal test, ivyleaf morningglory; details: post-emergence, 336 h, 14 days after application, read-out: Visual Growth Reduction (%) 14 Days After Application IPOHE
Protocol: as §1, §2, §3

[6] = test system: VIOTR: wild violet (Viola tricolor); test: Post-emergent herbicidal test, wild violet; details: post-emergence, 336 h, 14 days after application, read-out: Visual Growth Reduction (%) 14 Days After Application VIOTR
Protocol: as §1, §2, §3

[7] = test system: CYPES: yellow nutsedge (Cyperus esculentus); test: Post-emergent herbicidal test, yellow nutsedge; details: post-emergence, 336 h, 14 days after application, read-out: Visual Growth Reduction (%) 14 Days After Application CYPES
Protocol: as §1, §2, §3

[8] = test system: DIGSA: large crabgrass (Digitaria sanguinalis); test: Post-emergent herbicidal test, large crabgrass; details: post-emergence, 336 h, 14 days after application, read-out: Visual Growth Reduction (%) 14 Days After Application DIGSA
Protocol: as §1, §2, §3

[9] = test system: ECHCG: barnyardgrass (Echinochloa crus-galli); test: Post-emergent herbicidal test, barnyardgrass; details: post-emergence, 336 h, 14 days after application, read-out: Visual Growth Reduction (%) 14 Days After Application ECHCG
Protocol: as §1, §2, §3

[10] = test system: SETFA: giant foxtail (Setaria faberi); test: Post-emergent herbicidal test, giant foxtail; details: post-emergence, 336 h, 14 days after application, read-out: Visual Growth Reduction (%) 14 Days After Application SETFA
Protocol: as §1, §2, §3

[11] = test system: SORVU: shattercane (Sorghum bicolor); test: Post-emergent herbicidal test, shattercane; details: post-emergence, 336 h, 14 days after application, read-out: Visual Growth Reduction (%) 14 Days After Application SORVU
Protocol: as §1, §2, §3

`Nc1c(F)c(-c2ccc(Cl)c3c2OCO3)nc(C(=O)O)c1Cl` [Compound 1, 4-amino-3-chloro-6-(7-chlorobenzo[d][1,3]dioxol-4-yl)-5-fluoropicolinic acid] gave a pest or weed control at 17.5 g/ha ([1]; 17.5 g ai/ha) of 80%, a pest or weed control at 35 g/ha ([1]; 35 g ai/ha) of 85% and a pest or weed control at 70 g/ha ([1]; 70 g ai/ha) of 90%. The pest or weed control at 140 g/ha ([1]; 140 g ai/ha) was 95%, the pest or weed control at 17.5 g/ha ([2]; 17.5 g ai/ha) was 55% and the pest or weed control at 35 g/ha ([2]; 35 g ai/ha) was 100%. For the same compound, the pest or weed control at 70 g/ha ([2]; 70 g ai/ha) was 100%, the pest or weed control at 140 g/ha ([2]; 140 g ai/ha) was 100% and the pest or weed control at 17.5 g/ha ([3]; 17.5 g ai/ha) was 85%. For the same compound, the pest or weed control at 35 g/ha ([3]; 35 g ai/ha) was 85%, the pest or weed control at 70 g/ha ([3]; 70 g ai/ha) was 95% and the pest or weed control at 140 g/ha ([3]; 140 g ai/ha) was 90%. It also gave a pest or weed control at 17.5 g/ha ([4]; 17.5 g ai/ha) of 0%, a pest or weed control at 35 g/ha ([4]; 35 g ai/ha) of 0% and a pest or weed control at 70 g/ha ([4]; 70 g ai/ha) of 5%. For the same compound, the pest or weed control at 140 g/ha ([4]; 140 g ai/ha) was 15%, the pest or weed control at 17.5 g/ha ([5]; 17.5 g ai/ha) was 0% and the pest or weed control at 35 g/ha ([5]; 35 g ai/ha) was 0%. For the same compound, the pest or weed control at 70 g/ha ([5]; 70 g ai/ha) was 10%, the pest or weed control at 140 g/ha ([5]; 140 g ai/ha) was 15% and the pest or weed control at 17.5 g/ha ([6]; 17.5 g ai/ha) was 40%. The pest or weed control at 35 g/ha ([6]; 35 g ai/ha) was 60%, the pest or weed control at 70 g/ha ([6]; 70 g ai/ha) was 70% and the pest or weed control at 140 g/ha ([6]; 140 g ai/ha) was 95%. The pest or weed control at 17.5 g/ha ([7]; 17.5 g ai/ha) was 35%, the pest or weed control at 35 g/ha ([7]; 35 g ai/ha) was 40% and the pest or weed control at 70 g/ha ([7]; 70 g ai/ha) was 80%. For the same compound, the pest or weed control at 140 g/ha ([7]; 140 g ai/ha) was 90%, the pest or weed control at 17.5 g/ha ([8]; 17.5 g ai/ha) was 0% and the pest or weed control at 35 g/ha ([8]; 35 g ai/ha) was 20%. The pest or weed control at 70 g/ha ([8]; 70 g ai/ha) was 30%, the pest or weed control at 140 g/ha ([8]; 140 g ai/ha) was 50% and the pest or weed control at 17.5 g/ha ([9]; 17.5 g ai/ha) was 0%. For the same compound, the pest or weed control at 35 g/ha ([9]; 35 g ai/ha) was 0%, the pest or weed control at 70 g/ha ([9]; 70 g ai/ha) was 30% and the pest or weed control at 140 g/ha ([9]; 140 g ai/ha) was 40%. For the same compound, the pest or weed control at 17.5 g/ha ([10]; 17.5 g ai/ha) was 10%, the pest or weed control at 35 g/ha ([10]; 35 g ai/ha) was 10% and the pest or weed control at 70 g/ha ([10]; 70 g ai/ha) was 35%. It also gave a pest or weed control at 140 g/ha ([10]; 140 g ai/ha) of 50%, a pest or weed control at 17.5 g/ha ([11]; 17.5 g ai/ha) of 35% and a pest or weed control at 35 g/ha ([11]; 35 g ai/ha) of 35%. It also gave a pest or weed control at 70 g/ha ([11]; 70 g ai/ha) of 50% and a pest or weed control at 140 g/ha ([11]; 140 g ai/ha) of 60%.
